Where two headings read alike, the source gives them in different places.
Assays:
NRAS Q61K = biological target: T1, NRAS Q61K (Homo sapiens, UniProt P01111+P62937, Q61K); experiment: Ras-Raf disruption/FRET/MOA assay, NRAS Q61K; assay type: biochemical
T1 construct: His6
Description: (§1) Disruption of B-Raf Ras-Binding Domain (BRAF^RBD) Interaction with K-Ras by Compounds of the Invention (Also Called a FRET Assay or an MOA Assay)
(§2) Note—The following protocol describes a procedure for monitoring disruption of K-Ras G12C (GMP-PNP) binding to BRAF^RBD by a compound of the invention. This protocol may also be executed substituting other Ras proteins or nucleotides, such as K-Ras G12D and K-Ras G13D.
(§3) The purpose of this biochemical assay was to measure the ability of test compounds to facilitate ternary complex formation between a nucleotide-loaded K-Ras isoform and Cyclophilin A; the resulting ternary complex disrupts binding to a BRAF^RBD construct, inhibiting K-Ras signaling through a RAF effector.
(§4) In assay buffer containing 25 mM HEPES pH 7.3, 0.002% Tween20, 0.1% BSA, 100 mM NaCl and 5 mM MgCl2, tagless Cyclophilin A, His6-K-Ras-GMPPNP, and GST-BRAF^RBD were combined in a 384-well assay plate at final concentrations of 25 μM, 12.5 nM, and 50 nM, respectively. Compound was present in plate wells as a 10-point 3-fold dilution series starting at a final concentration of 30 μM. After incubation at 25° C. for 3 hours, a mixture of anti-His Eu-W1024 and anti-GST allophycocyanin was then added to assay sample wells at final concentrations of 10 nM and 50 nM, respectively, and the reaction incubated for an additional 1.5 hours. […] Compounds that facilitate disruption of a K-Ras:RAF complex were identified as those eliciting a decrease in the TR-FRET ratio relative to DMSO control wells.

KRAS G13C = KRAS G13C (Homo sapiens, UniProt P01116+P62937, G13C); experiment: Ras-Raf disruption/FRET/MOA assay, KRAS G13C; assay type: biochemical
KRAS G13C, sequence (P01116 1-169 isoform P01116-2 G13C limits assumed): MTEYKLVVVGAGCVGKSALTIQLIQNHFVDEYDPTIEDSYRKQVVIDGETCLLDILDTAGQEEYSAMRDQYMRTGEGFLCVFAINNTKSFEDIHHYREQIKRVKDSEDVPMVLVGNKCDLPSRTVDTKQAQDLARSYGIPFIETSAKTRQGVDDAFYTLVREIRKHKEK
KRAS G13C, sequence (P62937 whole entry): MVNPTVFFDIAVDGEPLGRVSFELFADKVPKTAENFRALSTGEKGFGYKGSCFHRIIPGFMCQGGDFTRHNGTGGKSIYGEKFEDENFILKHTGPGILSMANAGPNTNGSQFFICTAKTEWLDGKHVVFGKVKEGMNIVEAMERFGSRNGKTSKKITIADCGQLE
In short: (§5)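 His6-K-Ras-GMPPNP (12.5 nM) was incubated with GST-BRAF RBD (50 nM), tagless cyclophilin A (25 µM) and compound (10-point 3-fold series from 30 µM) in HEPES pH 7.3 buffer for 3 h at 25 °C. Anti-His Eu/anti-GST APC were then added for 1.5 h; disruption was read as a drop in TR-FRET ratio versus DMSO.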

NCI-H358 (K-Ras G12C) = experiment: CellTiter-Glo cell viability assay, H358; assay type: cell-based; details: Homo sapiens, NCI-H358, 120 h
In short: (§6)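 Luminescence from CellTiter-Glo serves as the viability read-out after cells are treated with compound for 5 days. Each well's signal is divided by the DMSO average and multiplied by 100, and curves are fitted by four-parameter logistic regression.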

KRAS G13D = KRAS G13D (Homo sapiens, UniProt P01116+P62937, G13D); experiment: Ras-Raf disruption/FRET/MOA assay, KRAS G13D; assay type: biochemical
KRAS G13D, sequence (P01116 1-169 isoform P01116-2 G13D limits assumed): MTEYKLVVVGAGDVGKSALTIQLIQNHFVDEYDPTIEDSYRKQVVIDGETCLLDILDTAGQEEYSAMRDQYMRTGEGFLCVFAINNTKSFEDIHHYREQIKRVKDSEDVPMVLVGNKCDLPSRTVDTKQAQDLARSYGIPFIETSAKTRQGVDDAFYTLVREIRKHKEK
KRAS G13D, sequence (P62937 whole entry): as the sequence (P62937 whole entry) above
In short: as §5

NRAS WT = biological target: T2, NRAS WT (Homo sapiens, UniProt P01111+P62937); experiment: Ras-Raf disruption/FRET/MOA assay, NRAS WT; assay type: biochemical
T2 construct: His6
T2 sequence (P01111 whole entry): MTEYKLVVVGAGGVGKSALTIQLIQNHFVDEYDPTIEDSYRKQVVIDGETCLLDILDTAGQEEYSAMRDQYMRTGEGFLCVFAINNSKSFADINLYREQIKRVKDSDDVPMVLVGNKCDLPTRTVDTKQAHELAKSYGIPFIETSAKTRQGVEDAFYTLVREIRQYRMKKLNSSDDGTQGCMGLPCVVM
T2 sequence (P62937 whole entry): as the sequence (P62937 whole entry) above
Description: as §1, §2, §3, §4

KRAS Q61H = KRAS Q61H (Homo sapiens, UniProt P01116+P62937, Q61H); experiment: Ras-Raf disruption/FRET/MOA assay, KRAS Q61H; assay type: biochemical
KRAS Q61H, sequence (P01116 1-169 isoform P01116-2 Q61H limits assumed): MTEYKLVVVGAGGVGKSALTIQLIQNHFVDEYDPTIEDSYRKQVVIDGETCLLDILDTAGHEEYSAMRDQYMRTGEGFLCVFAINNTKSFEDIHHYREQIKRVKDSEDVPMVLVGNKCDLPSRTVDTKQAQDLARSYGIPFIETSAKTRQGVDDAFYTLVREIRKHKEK
KRAS Q61H, sequence (P62937 whole entry): as the sequence (P62937 whole entry) above
Description: as §1, §2, §3, §4

KRAS G12C = KRAS G12C (Homo sapiens, UniProt P01116+P62937, G12C); experiment: Ras-Raf disruption/FRET/MOA assay, KRAS G12C; assay type: biochemical
KRAS G12C, sequence (P01116 1-169 isoform P01116-2 G12C limits assumed): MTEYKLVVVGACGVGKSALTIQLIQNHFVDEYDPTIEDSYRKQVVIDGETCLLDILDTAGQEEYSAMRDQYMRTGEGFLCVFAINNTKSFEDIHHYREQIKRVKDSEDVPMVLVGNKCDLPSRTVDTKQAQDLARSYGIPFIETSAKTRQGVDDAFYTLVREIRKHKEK
KRAS G12C, sequence (P62937 whole entry): as the sequence (P62937 whole entry) above
In short: as §5

NRAS Q61R = biological target: T3, NRAS Q61R (Homo sapiens, UniProt P01111+P62937, Q61R); experiment: Ras-Raf disruption/FRET/MOA assay, NRAS Q61R; assay type: biochemical
T3 construct: His6
T3 sequence (P01111 whole entry Q61R): as the sequence (P01111 whole entry) above, with Q61R counted along it
T3 sequence (P62937 whole entry): as the sequence (P62937 whole entry) above
Description: as §1, §2, §3, §4

KRAS G12S = KRAS G12S (Homo sapiens, UniProt P01116+P62937, G12S); experiment: Ras-Raf disruption/FRET/MOA assay, KRAS G12S; assay type: biochemical
KRAS G12S, sequence (P01116 1-169 isoform P01116-2 G12S limits assumed): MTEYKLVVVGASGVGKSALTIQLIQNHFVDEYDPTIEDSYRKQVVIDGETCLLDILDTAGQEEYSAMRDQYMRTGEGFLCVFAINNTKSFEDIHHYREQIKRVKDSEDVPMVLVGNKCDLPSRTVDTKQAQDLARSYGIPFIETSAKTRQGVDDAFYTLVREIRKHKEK
KRAS G12S, sequence (P62937 whole entry): as the sequence (P62937 whole entry) above
In short: as §5

NRAS G12C = biological target: T4, NRAS G12C (Homo sapiens, UniProt P01111+P62937, G12C); experiment: Ras-Raf disruption/FRET/MOA assay, NRAS G12C; assay type: biochemical
T4 construct: His6
T4 sequence (P01111 whole entry G12C): as the sequence (P01111 whole entry) above, with G12C counted along it
T4 sequence (P62937 whole entry): as the sequence (P62937 whole entry) above
In short: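 Disruption of Ras:RAF binding was read as a drop in TR-FRET ratio versus DMSO controls. The buffer was 25 mM HEPES pH 7.3, 0.002% Tween20, 0.1% BSA, 100 mM NaCl and 5 mM MgCl2. Compounds were tested as a 10-point 3-fold dilution series from 30 μM. Detection used 10 nM anti-His Eu-W1024 and 50 nM anti-GST allophycocyanin.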

AsPC-1 (K-Ras G12D) [1] = experiment: CellTiter-Glo cell viability assay, AsPC-1; assay type: cell-based; details: Homo sapiens, ASPC1, 120 h
In short: as §6

KRAS G12V = KRAS G12V (Homo sapiens, UniProt P01116+P62937, G12V); experiment: Ras-Raf disruption/FRET/MOA assay, KRAS G12V; assay type: biochemical
KRAS G12V, sequence (P01116 1-169 isoform P01116-2 G12V limits assumed): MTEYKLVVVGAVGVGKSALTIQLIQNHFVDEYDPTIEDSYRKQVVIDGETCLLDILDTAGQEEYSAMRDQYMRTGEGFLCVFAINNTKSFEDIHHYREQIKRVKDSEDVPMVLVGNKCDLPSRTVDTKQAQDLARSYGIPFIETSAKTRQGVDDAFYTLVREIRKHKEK
KRAS G12V, sequence (P62937 whole entry): as the sequence (P62937 whole entry) above
In short: as §5

KRAS G12D = KRAS G12D (Homo sapiens, UniProt P01116+P62937, G12D); experiment: Ras-Raf disruption/FRET/MOA assay, KRAS G12D; assay type: biochemical
KRAS G12D, sequence (P01116 1-169 isoform P01116-2 G12D limits assumed): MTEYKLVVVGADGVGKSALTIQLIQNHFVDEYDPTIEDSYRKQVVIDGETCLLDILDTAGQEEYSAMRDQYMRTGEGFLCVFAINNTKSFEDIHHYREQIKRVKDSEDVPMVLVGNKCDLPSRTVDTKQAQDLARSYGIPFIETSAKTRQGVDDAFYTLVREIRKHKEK
KRAS G12D, sequence (P62937 whole entry): as the sequence (P62937 whole entry) above
In short: as §5

AsPC-1 (K-Ras G12D) [2] = experiment: Potency assay: pERK in AsPC-1 cells; assay type: cell-based; details: Homo sapiens
KRAS WT = KRAS WT (Homo sapiens, UniProt P01116+P62937); experiment: Ras-Raf disruption/FRET/MOA assay, KRAS WT; assay type: biochemical
KRAS WT, sequence (P01116 1-169 isoform P01116-2 limits assumed): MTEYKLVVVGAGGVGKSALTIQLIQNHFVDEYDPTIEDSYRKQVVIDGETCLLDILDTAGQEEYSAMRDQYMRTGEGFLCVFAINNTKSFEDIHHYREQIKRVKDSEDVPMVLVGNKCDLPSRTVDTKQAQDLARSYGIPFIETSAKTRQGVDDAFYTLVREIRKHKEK
KRAS WT, sequence (P62937 whole entry): as the sequence (P62937 whole entry) above
In short: as §5

[3] = NRAS Q61K, read-out: NRAS Q61K FRET data IC50
[4] = disruption of BRAF RBD binding, with Cyclophilin A, read-out: KRAS G13C FRET IC50
[5] = NCI-H358, K-Ras G12C, 5-day treatment, read-out: H358 Cell Viability IC50
[6] = disruption of BRAF RBD binding, with Cyclophilin A, read-out: KRAS G13D FRET IC50
[7] = NRAS WT, read-out: NRAS WT FRET data IC50
[8] = KRAS Q61H, read-out: KRAS Q61H FRET data IC50
[9] = disruption of BRAF RBD binding, with Cyclophilin A, read-out: KRAS G12C FRET IC50
[10] = NRAS Q61R, read-out: NRAS Q61R FRET data IC50
[11] = disruption of BRAF RBD binding, with Cyclophilin A, read-out: KRAS G12S FRET IC50
[12] = NRAS G12C, read-out: NRAS G12C FRET data IC50
[13] = AsPC-1, K-Ras G12D, 5-day treatment, read-out: AsPC-1 Cell Viability IC50
[14] = disruption of BRAF RBD binding, with Cyclophilin A, read-out: KRAS G12V FRET IC50
[15] = disruption of BRAF RBD binding, with Cyclophilin A, read-out: KRAS G12D FRET IC50
[16] = ASPC1, AsPC-1 cells, K-Ras G12D, read-out: pERK EC50 (AsPC-1 KRAS G12D)
[17] = disruption of BRAF RBD binding, with Cyclophilin A, read-out: KRAS WT FRET IC50

T1 sequence (P01111 whole entry Q61K): as the sequence (P01111 whole entry) above, with Q61K counted along it
T1 sequence (P62937 whole entry): as the sequence (P62937 whole entry) above

| Structure (SMILES) | IC50 (NRAS Q61K; [3]) [nM] | IC50 (KRAS G13C; [4]) [nM] | IC50 (NCI-H358 (K-Ras G12C); [5]) [nM] | IC50 (KRAS G13D; [6]) [nM] | IC50 (NRAS WT; [7]) [nM] | IC50 (KRAS Q61H; [8]) [nM] | IC50 (KRAS G12C; [9]) [nM] | IC50 (NRAS Q61R; [10]) [nM] | IC50 (KRAS G12S; [11]) [nM] | IC50 (NRAS G12C; [12]) [nM] | IC50 (AsPC-1 (K-Ras G12D) [1]; [13]) [nM] | IC50 (KRAS G12V; [14]) [nM] | IC50 (KRAS G12D; [15]) [nM] | EC50 (AsPC-1 (K-Ras G12D) [2]; [16]) [nM] | IC50 (KRAS WT; [17]) [nM] | other results |
| --- | --- | --- | --- | --- | --- | --- | --- | --- | --- | --- | --- | --- | --- | --- | --- | --- |
| CCn1c(-c2cccnc2[C@H](C)OC)c2c3cc(ccc31)-c1csc(n1)C[C@H](NC(=O)[C@H](C(C)C)N(C)C(=O)N1CCC[C@@H](N(C)C(=O)[C@H]3CN3)C1)C(=O)N1CCC[C@H](N1)C(=O)OCC(C)(C)C2 (atropisomer, axis not shown) [Compound 289] | 10 to 100 | 100 to 1000 | 10 to 100 | 100 to 1000 | 10 to 100 | 10 to 100 | 10 to 100 | 10 to 100 | 10 to 100 | 10 to 100 | 100 to 1000 | 100 to 1000 | 100 to 1000 | < 5000 | 10 to 100 | – |
| CCn1c(-c2cccnc2[C@H](C)OC)c2c3cc(ccc31)-c1csc(n1)C[C@H](NC(=O)[C@H](C(C)C)N(C)C(=O)N1CCC[C@H](N(C)C(=O)[C@H]3CN3)C1)C(=O)N1CCC[C@H](N1)C(=O)OCC(C)(C)C2 (atropisomer, axis not shown) [Compound 290] | 100 to 1000 | 100 to 1000 | 10 to 100 | 1000 to 10000 | 100 to 1000 | 100 to 1000 | 100 to 1000 | 100 to 1000 | 100 to 1000 | 100 to 1000 | 1000 to 10000 | 100 to 1000 | 1000 to 10000 | < 5000 | 100 to 1000 | – |
| CCn1c(-c2cccnc2[C@H](C)OC)c2c3cc(ccc31)-c1csc(n1)C[C@H](NC(=O)[C@H](C(C)C)N(C)C(=O)N1CCC[C@@H](N(C)C(=O)[C@@H]3CN3)C1)C(=O)N1CCC[C@H](N1)C(=O)OCC(C)(C)C2 (atropisomer, axis not shown) [Compound 291] | 10 to 100 | 100 to 1000 | 10 to 100 | 100 to 1000 | 10 to 100 | 10 to 100 | 10 to 100 | 100 to 1000 | 100 to 1000 | 10 to 100 | 100 to 1000 | 100 to 1000 | 100 to 1000 | < 5000 | 10 to 100 | – |
| CCC(C)N(C)C(=O)c1cncc(-c2c3c4cc(ccc4n2CC)-c2cc(O)cc(c2)C[C@H](NC(=O)[C@H](C(C)C)N(C)C(=O)CN(C)C(=O)[C@H]2CN2)C(=O)N2CCC[C@H](N2)C(=O)OCC(C)(C)C3)c1 (stereo partly drawn) [Compound 144] | – | – | – | – | – | – | – | – | – | – | – | – | – | – | – | IC50 (NRAS Q61K): 1000 to 10000 nM; IC50 (KRAS G13C): 10 to 100 nM; IC50 (NCI-H358 (K-Ras G12C); read-out: H358 Cell Viability IC50, NCI-H358, K-Ras G12C, 5-day treatment): 10 to 100 nM; IC50 (KRAS G13D): 100 to 1000 nM; IC50 (NRAS WT): 100 to 1000 nM; IC50 (KRAS Q61H): 10 to 100 nM; IC50 (KRAS G12C): 10 to 100 nM; IC50 (NRAS Q61R): 1000 to 10000 nM; IC50 (KRAS G12S): 100 to 1000 nM; IC50 (NRAS G12C; NRAS G12C FRET data IC50, NRAS G12C): 10 to 100 nM; IC50 (AsPC-1 (K-Ras G12D) [1]; read-out: AsPC-1 Cell Viability IC50, AsPC-1, K-Ras G12D, 5-day treatment): 100 to 1000 nM; IC50 (KRAS G12V): 100 to 1000 nM; IC50 (KRAS G12D): 100 to 1000 nM; EC50 (AsPC-1 (K-Ras G12D) [2]; ASPC1, read-out: pERK EC50 (AsPC-1 KRAS G12D)): < 5000 nM; IC50 (KRAS WT): 100 to 1000 nM |

Source: patent US11739074B2, “Ras inhibitors” (Revolution Medicines, Inc., priority 2019, dated 2023)
